Data taken from the Kinase Knowledgebase extract (Sharma et al. 2016).

Target: CDK2 (UniProt P24941)
Test: Enzyme Assay

Structure (SMILES)	IC50 [µM]
CC(C)c1nn(-c2c(Cl)cc(Cl)cc2Cl)c2nc(Cc3ccc(CN4CCCC4)n3C)[nH]c(=O)c12	< 0.1
COCCOc1ccc(Cc2nc3c(c(C(C)C)nn3-c3c(Cl)cccc3Cl)c(=O)[nH]2)cc1	< 0.1
CC(C)c1nn(-c2c(Cl)cc(S(N)(=O)=O)cc2Cl)c2nc(Cc3ccc(OCCN4CCOCC4)cc3)[nH]c(=O)c12	< 0.01
O=C(Nc1cccc2c1C(=O)c1c-2n[nH]c1-c1ccc(S(=O)(=O)N2CCNCC2)cc1)NN1CCOCC1	< 0.1
O=C(Nc1cccc2c1C(=O)c1c-2n[nH]c1-c1ccc(OP(=O)(O)O)cc1)NN1CCOCC1	< 0.1
O=C(Nc1cccc2c1C(=O)c1c(-c3ccc(CNC(CO)CO)cc3)n[nH]c1-2)NN1CCOCC1	< 0.01
CC(C)N1CCN(S(=O)(=O)c2ccc(-c3[nH]nc4c3C(=O)c3c(NC(=O)NN5CCOCC5)cccc3-4)cc2)CC1	< 0.01
CCN1CCN(S(=O)(=O)c2cc(Cl)c(-n3nc(C(C)C)c4c(=O)[nH]c(Cc5ccc(OCCN6CCOCC6)cc5)nc43)c(Cl)c2)CC1	< 1
CC(C)c1nn(-c2c(Cl)cc(Cl)cc2Cl)c2nc(Cc3ccc(OCCO)cc3)[nH]c(=O)c12	< 0.1
Cc1noc(COc2ccc(-c3[nH]nc4c3C(=O)c3c(NC(=O)NN5CCOCC5)cccc3-4)cc2)n1	< 0.1
CC(C)c1nn(-c2c(Cl)cc(Cl)cc2Cl)c2nc(Cc3ccc(OCCN4CCN(C(C)C)CC4)cc3)[nH]c(=O)c12	< 0.01
CC(C)c1nn(-c2c(Cl)cccc2Cl)c2nc(Cc3ccc(OCCO)cc3)[nH]c(=O)c12	< 0.1
CC(C)c1nn(-c2c(Cl)cccc2Cl)c2nc(Cc3ccc(OCCOP(=O)(O)O)cc3)[nH]c(=O)c12	< 0.1
CC(C)c1nn(-c2c(Cl)cc(Cl)cc2Cl)c2nc(Cc3ccc(NS(=O)(=O)CCCN4CCN(C(C)C)CC4)cc3)[nH]c(=O)c12	< 0.1
CC(C)c1nn(-c2c(Cl)cc(Cl)cc2Cl)c2nc(Cc3ccc(NS(=O)(=O)CCCN4CCCCC4)cc3)[nH]c(=O)c12	< 0.1
CCOC(=O)COc1ccc(-c2[nH]nc3c2C(=O)c2c(NC(=O)NN4CCOCC4)cccc2-3)cc1	< 0.1
CC(C)c1nn(-c2c(Cl)cc(Cl)cc2Cl)c2nc(Cc3ccc(OCC(C)(C)O)cc3)[nH]c(=O)c12	< 0.1
CC(C)c1nn(-c2c(Cl)cc(Cl)cc2Cl)c2nc(Cc3ccc(NS(=O)(=O)CCCN4CCCC4)cc3)[nH]c(=O)c12	< 0.1
CC(C)c1nn(-c2c(Cl)cccc2Cl)c2nc(Cc3ccc(OCCN4CCOCC4)c(O)c3)[nH]c(=O)c12	< 0.1
COc1ccc(Cc2nc3c(c(C(C)C)nn3-c3c(Cl)cccc3Cl)c(=O)[nH]2)cc1	< 0.01
O=C(Nc1cccc2c1C(=O)c1c(-c3ccc(CN4CCN(c5ccccn5)CC4)cc3)n[nH]c1-2)NN1CCOCC1	< 0.1
CC(C)c1nn(-c2c(Cl)cccc2Cl)c2nc(Cc3ccc(OCC(C)(C)O)cc3)[nH]c(=O)c12	< 0.1
CC(C)c1nn(-c2c(Cl)cccc2Cl)c2nc(Cc3ccc(O)cc3)[nH]c(=O)c12	< 0.01
CN(C)C(=O)COc1ccc(-c2[nH]nc3c2C(=O)c2c(NC(=O)NN4CCOCC4)cccc2-3)cc1	< 0.01
O=C(Nc1cccc2c1C(=O)c1c(-c3ccc(CN4CCC(O)CC4)cc3)n[nH]c1-2)NN1CCOCC1	< 0.1
CC(C)c1nn(-c2c(Cl)cccc2Cl)c2nc(Cc3ccc(C(=O)NOCCN4CCOCC4)cc3)[nH]c(=O)c12	< 0.1
CC(C)c1nn(-c2c(Cl)cccc2Cl)c2nc(Cc3ccc(O)c(CN4CCOCC4)c3)[nH]c(=O)c12	< 0.1
O=C(Nc1cccc2c1C(=O)c1c(-c3ccc(CN(CCO)CCO)cc3)n[nH]c1-2)NN1CCOCC1	< 0.1

Further lines, results first:

IC50 [µM]	Structure (SMILES)
< 0.1	CCOC(=O)CN1CCN(NC(=O)Nc2cccc3c2C(=O)c2c-3n[nH]c2-c2ccc(OCCN3CCCC3)cc2)CC1
< 0.1	Cc1cc(OCCN2CCCN(C)CC2)ccc1-c1[nH]nc2c1C(=O)c1c(NC(=O)NN3CCN(C)CC3)cccc1-2
< 0.1	CN(C)C(=O)CN1CCN(NC(=O)Nc2cccc3c2C(=O)c2c-3n[nH]c2-c2ccc(OCCN3CCCC3)cc2)CC1
< 0.1	CC(C)N1CCN(CCOc2ccc(-c3n[nH]c4c3C(=O)c3c(NC(=O)NN5CCOCC5)cccc3-4)c(F)c2)CC1
< 0.1	Cc1cc(OCCN2CCOCC2)ccc1-c1[nH]nc2c1C(=O)c1c(NC(=O)NN3CCN(C)CC3)cccc1-2
< 0.1	CN1CCN(NC(=O)Nc2cccc3c2C(=O)c2c(-c4ccc(OCCN5CCCC5)c(F)c4)n[nH]c2-3)CC1
< 0.1	Cc1noc(COc2ccc(-c3[nH]nc4c3C(=O)c3c(NC(=O)NN5CCN(C)CC5)cccc3-4)cc2)n1
< 0.1	Cc1cc(-c2[nH]nc3c2C(=O)c2c(NC(=O)NN4CCOCC4)cccc2-3)ccc1OCCN1CCCC1
< 0.1	O=C(Nc1cccc2c1C(=O)c1c(-c3ccc(CN4CCOCC4)cc3)n[nH]c1-2)NN1CCOCC1
< 0.1	CC(C)C(N)C(=O)OCCN1CCN(NC(=O)Nc2cccc3c2C(=O)c2c-3n[nH]c2-c2ccc(OCCN3CCCC3)cc2)CC1 (configuration not stated)
< 0.1	CN1CCN(NC(=O)Nc2cccc3c2C(=O)c2c-3n[nH]c2-c2ccc(OCCN3CC[C@H](O)C3)cc2)CC1
< 0.01	Cc1cc(-c2[nH]nc3c2C(=O)c2c(NC(=O)NN4CCOCC4)cccc2-3)ccc1OCCN1CCN(C(C)C)CC1
< 0.1	CN1CCN(NC(=O)Nc2cccc3c2C(=O)c2c(-c4ccc(OCCN5CCCC5)cc4F)n[nH]c2-3)CC1
< 0.1	Cc1cc(OCCN2CCCCC2)ccc1-c1[nH]nc2c1C(=O)c1c(NC(=O)NN3CCN(C)CC3)cccc1-2
< 0.1	O=C(Nc1cccc2c1C(=O)c1c(-c3ccc(OCCN4CCOCC4)cc3Cl)n[nH]c1-2)NN1CCOCC1
< 0.1	O=C(Nc1cccc2c1C(=O)c1c(-c3ccc(CN4CCN(CCO)CC4)cc3)n[nH]c1-2)NN1CCOCC1
< 0.01	Cc1cc(OCCCN2CCN(C(C)C)CC2)ccc1-c1[nH]nc2c1C(=O)c1c(NC(=O)NN3CCOCC3)cccc1-2
< 0.1	Cc1cc(-c2[nH]nc3c2C(=O)c2c(NC(=O)NN4CCN(C)CC4)cccc2-3)ccc1OCCN1CCN(C(C)C)CC1
< 0.1	Cc1cc(OCCN2CCCC2)ccc1-c1[nH]nc2c1C(=O)c1c(NC(=O)NN3CCN(C)CC3)cccc1-2
< 0.1	Cc1cc(-c2[nH]nc3c2C(=O)c2c(NC(=O)NN4CCN(C)CC4)cccc2-3)ccc1OCCN1CCCC1
< 0.1	O=C(Nc1cccc2c1C(=O)c1c(-c3ccc(CN4CCCC4)cc3)n[nH]c1-2)NN1CCOCC1
< 0.1	CN1CCN(NC(=O)Nc2cccc3c2C(=O)c2c-3n[nH]c2-c2ccc(OCCN3CCC[C@H]3CO)cc2)CC1
< 0.1	Cc1cc(OCCN2CCN(C(C)C)CC2)ccc1-c1[nH]nc2c1C(=O)c1c(NC(=O)NN3CCN(C)CC3)cccc1-2
< 0.1	CC(C)N1CCN(Cc2cc(-c3[nH]nc4c3C(=O)c3c(NC(=O)NN5CCOCC5)cccc3-4)ccc2O)CC1
< 0.1	CN1CCN(NC(=O)Nc2cccc3c2C(=O)c2c-3n[nH]c2-c2ccc(OCCN(CCO)CCO)cc2)CC1
< 0.01	CC(C)N1CCN(CCCOc2ccc(-c3[nH]nc4c3C(=O)c3c(NC(=O)NN5CCOCC5)cccc3-4)cc2)CC1
< 0.1	CN1CCN(Cc2ccc(-c3n[nH]c4c3C(=O)c3c(NC(=O)NN5CCOCC5)cccc3-4)cc2)CC1
< 0.1	COc1cc(-c2[nH]nc3c2C(=O)c2c(NC(=O)NN4CCOCC4)cccc2-3)ccc1OCCN1CCCC1
< 0.01	Cc1cc(OCCN2CCCC2)ccc1-c1[nH]nc2c1C(=O)c1c(NC(=O)NN3CCOCC3)cccc1-2
